Experimental data taken from patent publication EP4810052A2, “HCRHR2 SELECTIVE POLYPEPTIDES” (Gubra A/S, priority 2023, dated 2026).
Where two headings read alike, the source gives them in different places. Starred links: 1 amine or outer side, 2 acyl side, 3 side chain; linkers in the order of their positions; H or OH if unused. Non-standard residues stand in square brackets, D forms with d. Residues, ends and D or L forms follow the SMILES beside them. Groups on a side chain read outwards from the residue. *: point of attachment. C20 diacid = O=C(O)CCCCCCCCCCCCCCCCCCC(=O)*; γGlu = O=C(O)[C@H](CCC(=O)[*:2])N[*:1]; Nle = CCCC[C@H](N)C(=O)O; AEEA = NCCOCCOCC(=O)O; Aib = CC(C)(N)C(=O)O

What was measured:
[1] = target: T1, hCRHR2 (Homo sapiens, UniProt Q13324); assay: HTRF cAMP assay, determination of hCRHR2 potency (peptide libraries 5 conc., purified peptides 11 conc.); assay type: cell-based; conditions: for Selectivity ratio (hCRHR1/ hCRHR2): Table 5
T1 sequence (Q13324 1-411): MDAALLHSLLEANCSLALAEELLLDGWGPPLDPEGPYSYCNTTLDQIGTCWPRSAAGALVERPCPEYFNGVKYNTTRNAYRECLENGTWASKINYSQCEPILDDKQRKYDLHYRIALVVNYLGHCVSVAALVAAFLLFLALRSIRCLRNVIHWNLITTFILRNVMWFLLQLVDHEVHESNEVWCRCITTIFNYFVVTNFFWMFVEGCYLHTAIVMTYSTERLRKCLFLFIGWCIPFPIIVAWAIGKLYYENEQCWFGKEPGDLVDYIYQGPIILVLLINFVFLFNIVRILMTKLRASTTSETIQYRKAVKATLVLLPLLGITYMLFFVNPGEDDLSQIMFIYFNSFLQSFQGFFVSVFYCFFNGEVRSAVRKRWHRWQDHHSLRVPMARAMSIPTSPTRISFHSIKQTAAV
In short: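 Read-out was HTRF competitive cAMP detection (d2-labelled cAMP, cryptate-labelled antibody) in suspended, freshly thawed CHO-K1 cells stably carrying human CRHR2.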

[2] = target: T2, hCRHR1 (Homo sapiens, UniProt P34998); assay: HTRF cAMP assay, determination of hCRHR1 potency (peptide libraries 5 conc., purified peptides 11 conc.); assay type: cell-based
T2 sequence (P34998 24-415): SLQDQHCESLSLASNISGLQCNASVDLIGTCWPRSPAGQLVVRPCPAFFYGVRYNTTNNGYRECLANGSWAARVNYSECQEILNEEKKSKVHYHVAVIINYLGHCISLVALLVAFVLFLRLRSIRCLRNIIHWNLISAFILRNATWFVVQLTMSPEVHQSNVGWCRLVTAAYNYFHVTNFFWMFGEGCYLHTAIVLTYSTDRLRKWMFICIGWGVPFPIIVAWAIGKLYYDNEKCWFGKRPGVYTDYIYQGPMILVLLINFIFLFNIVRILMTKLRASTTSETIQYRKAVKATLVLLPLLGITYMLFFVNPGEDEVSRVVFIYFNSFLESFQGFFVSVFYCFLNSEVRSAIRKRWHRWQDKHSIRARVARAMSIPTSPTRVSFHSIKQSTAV
In short: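 Cellular cAMP was read by time-resolved FRET between d2-labelled cAMP and cryptate anti-cAMP antibody. The cells were freshly thawed suspension CHO-K1 cells stably expressing human CRHR1.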

[3] = Thioflavin T fibril formation assay of purified peptides; assay type: physicochemical; design: key: Amyloid fibril formation detected by an increase in ThT fluorescence was denoted with "Yes"; samples without increasing ThT fluorescence hence not forming amyloid fibrils were denoted "No"; conditions: pH 7.5
In short: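 Fibril formation read as rising ThT emission at 480 nm (450 nm excitation), 4 µM ThT, over 96 h at 40°C with alternating 5-min rest and 700 rpm shaking cycles, in triplicate. Samples were 200 µM compound in 50 mM phosphate at various pH values, or co-formulated at 200 µM in semaglutide product at pH 7.4.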

[4] = Chemical stability of purified peptides (RP-UHPLC main peak purity loss); assay type: physicochemical; conditions: 40°C; for Chemical stability at pH 7.5 after 14 days at 40°C (% degradation): pH 7.5, 14 days; for Chemical stability at pH 7.5 after 28 days at 40°C (% degradation): pH 7.5, 28 days
Procedure: Chemical stability was tested at a concentration of approximately of 1.0 mg/ml peptide in the following vehicles: 50 mM phosphate buffer pH 7.5. Dissolved samples were incubated for at least 2 h at room temperature on a rocking table. The main peak purity at time zero (T0) was determined using reversed phase chromatography. The samples were incubated at 40°C for 14 days (T14) and 28 days (T28). The samples were analyzed with reversed phase chromatography and size exclusion chromatography.
Reversed Phase chromatography was performed on a Thermo Dionex Ultimate UHPLC system with UV detection at 215 nm) and equipped with a Kinetex column (1.7 µm, C8, 100 Å, 150 x 2.1 mm (00F-4499-AN)). Analysis was performed by gradient elution with buffer A (0.1% TFA in 95:5 H2O:acetonitrile) and buffer B (0.1% TFA in 5:95 H2O: acetonitrile) at a column temperature of 50 °C (gradient used 25-55%B over 40 min. Flowrate was 0.5 mL/min. The main peak purity was determined from the integrated chromatogram as the area under the main peak relative to the total peak area. The purity loss was calculated as the difference between the T0 and T14 time point and/or as the difference between the T0 and T28 time point.
The chemical stability of selected peptides was evaluated at varying pH's at 40° C over 28 days. Samples were prepared and analysed as described in procedure with the addition of pH adjusting samples to the targets indicated below. As a comparator,r commercially available semaglutide drug product (Ozempic®, Novo Nordisk) was included in the sample set.

[5] = pH 7.5
Procedure: Solubility was tested in the following vehicles: 100 mM phosphate buffer facilitating a target pH of 6.5, 7.0, and 7.5. Samples were directly dissolved in Mini-UniPrep Syringeless Filter 0.45 µm unit (Whatman). For the desired concentration, such as a concentration of 4000 µM (approximately 20 mg/mL), 1600 nmol peptide was dissolved in 400 µL vehicle. Samples were incubated for at least 1 h at room temperature on a rocking table. The pH was measured and adjusted. Samples were left on the rocking table for an additional hour before a second pH measurement and adjustment. Visual inspection was performed and noted before the filter was pushed. The concentration of peptide in the filtrate was determined using CAD (Charged Aerosol Detection), double determination was done for each sample. The measured concentration was reported in µM. Furthermore, the pH of the filtrate was measured and reported. Peptides with a measured concentration within +/-20% of target concentration are considered fully soluble.
Compounds were dissolved to a nominal concentration of 4000 µM and analysed as described above. Samples with phenol contained 5.0 mg/ml phenol.

[6] = Table 5, purified peptides, read-out: hCRHR2 EC50
[7] = Table 5, purified peptides, read-out: hCRHR1 EC50

SMILES	Selectivity ratio (hCRHR1/ hCRHR2) [1]	EC50 [1, 6]	EC50 ([1]; library peptides, matched molecular pairs L vs Nle in position X^38, read-out: Potency hCRHR2 pEC50 (converted))	EC50 [2, 7]	EC50 ([2]; library peptides, matched molecular pairs L vs Nle in position X^38, read-out: Potency hCRHR1 pEC50 (converted))	Fibrillation (pH 7.5) [3]	Chemical stability at pH 7.5 after 14 days at 40°C (% degradation) [4]	Chemical stability at pH 7.5 after 28 days at 40°C (% degradation) [4]	Solubility pH 7.5, target conc. =10 mg/mL (measured mg/mL) [5]
CCCC[C@H](NC(=O)[C@@H](NC(=O)[C@H](CCC(=O)O)NC(=O)[C@H](C)NC(=O)[C@H](CC(N)=O)NC(=O)[C@@H](NC(=O)[C@H](CCCCNC(=O)COCCOCCNC(=O)COCCOCCNC(=O)CC[C@H](NC(=O)CC[C@H](NC(=O)CCCCCCCCCCCCCCCCCCC(=O)O)C(=O)O)C(=O)O)NC(=O)[C@H](C)NC(=O)[C@H](CCC(N)=O)NC(=O)[C@H](CCC(=O)O)NC(=O)[C@H](CCCNC(=N)N)NC(=O)[C@H](C)NC(=O)[C@H](C)NC(=O)[C@H](CCCNC(=N)N)NC(=O)[C@H](C)NC(=O)[C@H](CCCNC(=N)N)NC(=O)[C@H](C)NC(=O)[C@H](CCC(N)=O)NC(=O)[C@H](CO)NC(=O)[C@H](CC(C)C)NC(=O)[C@H](CC(C)C)NC(=O)[C@@H](NC(=O)[C@H](CCC(N)=O)NC(=O)[C@H](CC(C)C)NC(=O)[C@H](CC(C)C)NC(=O)CNC(=O)[C@@H](NC(=O)[C@@H]1CCCN1C(=O)[C@@H](NC(=O)[C@H](CC(=O)O)NC(=O)[C@H](CC(C)C)NC(=O)[C@H](CO)NC(=O)[C@H](CC(C)C)NC(=O)[C@@H](NC(=O)[C@@H](N)[C@@H](C)CC)C(C)C)C(C)C)[C@@H](C)CC)[C@@H](C)CC)[C@@H](C)O)[C@@H](C)CC)C(=O)N[C@@H](C)C(=O)N[C@@H](CCC(=O)O)C(=O)N[C@H](C(N)=O)C(C)C [compound 83] (H-IVLSLDVPIGLLQILLSQARARAAREQAK([AEEA-AEEA-γGlu-γGlu-C20 diacid])TNAEI[Nle]AEV-NH2)	>9091	0.55 nM	0.316 nM	> 5000 nM	7940 nM	No	-3.2%	-10%	9.5 mg/mL
CCCC[C@H](NC(=O)[C@@H](NC(=O)[C@H](CCC(=O)O)NC(=O)C(C)(C)NC(=O)[C@H](CC(N)=O)NC(=O)[C@@H](NC(=O)[C@H](CCCCNC(=O)COCCOCCNC(=O)COCCOCCNC(=O)CC[C@H](NC(=O)CC[C@H](NC(=O)CCCCCCCCCCCCCCCCCCC(=O)O)C(=O)O)C(=O)O)NC(=O)[C@H](C)NC(=O)[C@H](CCC(N)=O)NC(=O)[C@H](CCC(=O)O)NC(=O)[C@H](CCCNC(=N)N)NC(=O)[C@H](C)NC(=O)[C@H](C)NC(=O)[C@H](CCCNC(=N)N)NC(=O)[C@H](C)NC(=O)[C@H](CCCNC(=N)N)NC(=O)[C@H](C)NC(=O)[C@H](CCC(N)=O)NC(=O)[C@H](CCC(=O)O)NC(=O)[C@H](CC(C)C)NC(=O)[C@H](CC(C)C)NC(=O)[C@@H](NC(=O)[C@H](CCC(N)=O)NC(=O)[C@H](CC(C)C)NC(=O)[C@H](CC(C)C)NC(=O)CNC(=O)[C@@H](NC(=O)[C@@H]1CCCN1C(=O)[C@@H](NC(=O)[C@H](CC(=O)O)NC(=O)[C@H](CC(C)C)NC(=O)[C@H](CO)NC(=O)[C@H](CC(C)C)NC(=O)[C@@H](NC(=O)[C@@H](N)[C@@H](C)CC)C(C)C)C(C)C)[C@@H](C)CC)[C@@H](C)CC)[C@@H](C)O)[C@@H](C)CC)C(=O)N[C@@H](C)C(=O)N[C@@H](CCC(=O)O)C(=O)N[C@H](C(N)=O)[C@@H](C)CC [compound 100] (H-IVLSLDVPIGLLQILLEQARARAAREQAK([AEEA-AEEA-γGlu-γGlu-C20 diacid])TN[Aib]EI[Nle]AEI-NH2)	>6494	0.77 nM		> 5000 nM		No	-0.43%	-0.8%	11 mg/mL
CCCC[C@H](NC(=O)[C@@H](NC(=O)[C@H](CCC(=O)O)NC(=O)[C@H](C)NC(=O)[C@H](CC(N)=O)NC(=O)C(C)(C)NC(=O)[C@H](CCCCNC(=O)COCCOCCNC(=O)COCCOCCNC(=O)CC[C@H](NC(=O)CC[C@H](NC(=O)CCCCCCCCCCCCCCCCCCC(=O)O)C(=O)O)C(=O)O)NC(=O)[C@H](C)NC(=O)[C@H](CCC(N)=O)NC(=O)[C@H](CCC(=O)O)NC(=O)[C@H](CCCNC(=N)N)NC(=O)[C@H](C)NC(=O)[C@H](C)NC(=O)[C@H](CCCNC(=N)N)NC(=O)[C@H](C)NC(=O)[C@H](CCCNC(=N)N)NC(=O)[C@H](C)NC(=O)[C@H](CCC(N)=O)NC(=O)[C@H](CCC(=O)O)NC(=O)[C@H](CC(C)C)NC(=O)[C@H](CC(C)C)NC(=O)[C@@H](NC(=O)[C@H](CCC(N)=O)NC(=O)[C@H](CC(C)C)NC(=O)[C@H](CC(C)C)NC(=O)CNC(=O)[C@@H](NC(=O)[C@@H]1CCCN1C(=O)[C@@H](NC(=O)[C@H](CC(=O)O)NC(=O)[C@H](CC(C)C)NC(=O)[C@H](CO)NC(=O)[C@H](CC(C)C)NC(=O)[C@@H](NC(=O)[C@@H](N)[C@@H](C)CC)C(C)C)C(C)C)[C@@H](C)CC)[C@@H](C)CC)[C@@H](C)CC)C(=O)N[C@@H](C)C(=O)N[C@@H](CCC(=O)O)C(=O)N[C@H](C(N)=O)[C@@H](C)CC [compound 236] (H-IVLSLDVPIGLLQILLEQARARAAREQAK([AEEA-AEEA-γGlu-γGlu-C20 diacid])[Aib]NAEI[Nle]AEI-NH2)	>7463	0.67 nM		> 5000 nM		No	-1%	-3%	10 mg/mL
CCCC[C@H](NC(=O)[C@@H](NC(=O)[C@H](CCC(=O)O)NC(=O)[C@H](C)NC(=O)[C@H](CC(N)=O)NC(=O)[C@H](CCC(=O)O)NC(=O)[C@H](CCCCNC(=O)COCCOCCNC(=O)COCCOCCNC(=O)CC[C@H](NC(=O)CC[C@H](NC(=O)CCCCCCCCCCCCCCCCCCC(=O)O)C(=O)O)C(=O)O)NC(=O)[C@H](C)NC(=O)[C@H](CCC(N)=O)NC(=O)[C@H](CCC(=O)O)NC(=O)[C@H](CCCNC(=N)N)NC(=O)[C@H](C)NC(=O)[C@H](C)NC(=O)[C@H](CCCNC(=N)N)NC(=O)[C@H](C)NC(=O)[C@H](CCCNC(=N)N)NC(=O)[C@H](C)NC(=O)[C@H](CCC(N)=O)NC(=O)[C@H](CO)NC(=O)[C@H](CC(C)C)NC(=O)[C@H](CC(C)C)NC(=O)[C@@H](NC(=O)[C@H](CCC(N)=O)NC(=O)[C@H](CC(C)C)NC(=O)[C@H](CC(C)C)NC(=O)CNC(=O)[C@@H](NC(=O)[C@@H]1CCCN1C(=O)[C@@H](NC(=O)[C@H](CC(=O)O)NC(=O)[C@H](CC(C)C)NC(=O)[C@H](CO)NC(=O)[C@H](CC(C)C)NC(=O)[C@@H](NC(=O)[C@@H](N)[C@@H](C)CC)C(C)C)C(C)C)[C@@H](C)CC)[C@@H](C)CC)[C@@H](C)CC)C(=O)N[C@@H](C)C(=O)N[C@@H](CCC(=O)O)C(=O)N[C@H](C(N)=O)C(C)C [compound 239] (H-IVLSLDVPIGLLQILLSQARARAAREQAK([AEEA-AEEA-γGlu-γGlu-C20 diacid])ENAEI[Nle]AEV-NH2)	>5556	0.9 nM		> 5000 nM		No	-1.9%	-2.2%	11 mg/mL
